# Target: human NAMPT (Homo sapiens (Human), UniProt P43490)
# Assay: Human recombinant enzyme assay (NMN fluorescence biochemical assay)
# Conditions: 6 nM human NAMPT, 60 min; for AC1.4 Human: concentration of compound that generates 40% higher activity over basal; for EC50: concentration that gives half-maximal activation
# Method: Compounds described herein were assayed for their ability to stimulate the synthesis of nicotinamide mononucleotide (NMN) by the enzyme NAMPT. The human recombinant enzyme assay measures the activation of the enzyme activity by compounds using recombinant enzyme and substrates in a buffered cell-free system. The assay conditions closely mimic cellular environments. Dose responses were measured using an assay to detect the formation of nicotinamide mono-nucleotide. All experiments were performed in the 384-well format. Generally, 0.5 μL of DMSO containing varying concentrations of the test compound was mixed with 10 μL of the enzyme reagent solution. Enzyme reactions were initiated with the addition of 10 μL of a solution containing the substrates. The final assay conditions were as follows: 6 nM human NAMPT, 2.5 mM ATP, […] in 50 mM HEPES, pH 7.2, 1 mM DTT, 1 mM CHAPS 50 mM NaCl, 100 mM MgCl2. Following an incubation of 60 min at ambient temperature, 10 μL of 20% acetophenone in DMSO was added, followed by 10 μL of 2 M KOH and 40 μL of formic acid. The plates were read for fluorescence (Excitation/Emission=355 nm/460 nm) using an EnVision plate reader after 40 mins of incubation at ambient temperature. The potency measurements for compounds, are quantified and represented as AC1.4 (the concentration of compounds that generates 40% higher activity over basal) and EC50 (concentration of the compound that gives half-maximal activation).
# Sequence of human NAMPT (P43490 whole entry): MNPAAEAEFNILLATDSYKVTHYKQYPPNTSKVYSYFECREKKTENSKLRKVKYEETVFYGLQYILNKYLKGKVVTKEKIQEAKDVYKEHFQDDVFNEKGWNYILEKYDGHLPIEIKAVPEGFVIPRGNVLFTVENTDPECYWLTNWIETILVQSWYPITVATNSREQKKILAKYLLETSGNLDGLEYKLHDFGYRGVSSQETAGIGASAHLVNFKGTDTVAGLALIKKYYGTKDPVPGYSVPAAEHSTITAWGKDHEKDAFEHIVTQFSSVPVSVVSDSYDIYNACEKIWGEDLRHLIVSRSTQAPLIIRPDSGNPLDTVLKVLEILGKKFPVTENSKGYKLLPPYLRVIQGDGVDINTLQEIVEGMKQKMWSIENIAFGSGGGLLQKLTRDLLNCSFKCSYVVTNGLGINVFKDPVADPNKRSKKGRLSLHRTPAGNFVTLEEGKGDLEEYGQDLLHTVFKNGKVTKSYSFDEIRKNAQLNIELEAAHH
AC1.4 Human,EC50,Compound
0.044 µM,633 nM,"Cc1nc(C(=O)N2CC(O)(c3ccccc3)C2)nc(N2CC[C@@H](c3cn[nH]c3)C2)c1C (single isomer, unassigned) [Compound 9]"
0.003 µM,131 nM,"Cc1nc(C(N)=O)nc(N(CCc2ccccc2)CCc2cn[nH]c2)c1C [Compound 1, 4-((2-(1H-pyrazol-4-yl)ethyl)(phenethyl)amino)-5,6-dimethylpyrimidine-2-carboxamide]"
0.007 µM,156 nM,"CNC(=O)c1nc(C)c(C)c(N(CCc2ccccc2)CCc2cn[nH]c2)n1 [Compound 2, 4-((2-(1H-pyrazol-4-yl)ethyl)(phenethyl)amino)-N,5,6-trimethylpyrimidine-2-carboxamide]"
0.0165 µM,653 nM,"Cc1nc(C(=O)N2CC(O)(c3cccc(F)c3)C2)nc(NCCc2cn[nH]c2)c1C [Compound 3, (4-((2-(1H-pyrazol-4-yl)ethyl)amino)-5,6-dimethylpyrimidin-2-yl)(3-(3-fluorophenyl)-3-hydroxyazetidin-1-yl)methanone]"
0.0385 µM,1840 nM,"Cc1nc(C(=O)N2CCC(c3c[nH]c4ccccc34)CC2)nc(NCCc2cn[nH]c2)c1C [Compound 6, (4-(1H-indol-3-yl)piperidin-1-yl)(4-((2-(1H-pyrazol-4-yl)ethyl)amino)-5,6-dimethylpyrimidin-2-yl)methanone]"
0.0325 µM,182 nM,"Cc1nc(C(=O)N[C@@H](C)c2cccs2)nc(NCCc2cn[nH]c2)c1C [Compound 8, (S)-4-((2-(1H-pyrazol-4-yl)ethyl)amino)-5,6-dimethyl-N-(1-(thiophen-2-yl)ethyl)pyrimidine-2-carboxamide]"
0.0465 µM,282 nM,"Cc1nc(C(=O)NC(C)(C)c2cccc(F)c2)nc(NCCc2cn[nH]c2)c1C [Compound 11, 4-((2-(1H-pyrazol-4-yl)ethyl)amino)-N-(2-(3-fluorophenyl)propan-2-yl)-5,6-dimethylpyrimidine-2-carboxamide]"
0.048 µM,514 nM,"Cc1nc(C(=O)N2CCOCC2c2cccc(Cl)c2)nc(NCCc2cn[nH]c2)c1C (stereo not shown) [Compound 12, (4-((2-(1H-pyrazol-4-yl)ethyl)amino)-5,6-dimethylpyrimidin-2-yl)(3-(3-chlorophenyl)morpholino)methanone]"
0.0745 µM,597 nM,"Cc1nc(C(=O)N2CC(c3cccc(F)c3)C2)nc(NCCc2cn[nH]c2)c1C [Compound 18, (4-((2-(1H-pyrazol-4-yl)ethyl)amino)-5,6-dimethylpyrimidin-2-yl)(3-(3-fluorophenyl)azetidin-1-yl)methanone]"
0.075 µM,500 nM,"Cc1nc(C(=O)NCc2cccs2)nc(NCCc2cn[nH]c2)c1C [Compound 19, 4-((2-(1H-pyrazol-4-yl)ethyl)amino)-5,6-dimethyl-N-(thiophen-2-ylmethyl)pyrimidine-2-carboxamide]"
0.106 µM,872 nM,"Cc1nc(C(=O)N2CCOCC2(C)c2ccccc2)nc(NCCc2cn[nH]c2)c1C (stereo not shown) [Compound 25, (4-((2-(1H-pyrazol-4-yl)ethyl)amino)-5,6-dimethylpyrimidin-2-yl)(3-methyl-3-phenylmorpholino)methanone]"
0.144 µM,1360 nM,"Cc1nc(C(=O)N2CCC(F)(F)CC2c2ccccc2)nc(NCCc2cn[nH]c2)c1C (stereo not shown) [Compound 28, (4-((2-(1H-pyrazol-4-yl)ethyl)amino)-5,6-dimethylpyrimidin-2-yl)(4,4-difluoro-2-phenylpiperidin-1-yl)methanone]"
0.1725 µM,1870 nM,"Cc1nc(C(=O)N(C)[C@@H](C)c2ccccc2Cl)nc(NCCc2cn[nH]c2)c1C [Compound 29, (S)-4-((2-(1H-pyrazol-4-yl)ethyl)amino)-N-(1-(2-chlorophenyl)ethyl)-N,5,6-trimethylpyrimidine-2-carboxamide]"
0.192 µM,1610 nM,"Cc1nc(C(=O)NCc2ccccc2)nc(NCCc2cn[nH]c2)c1C [Compound 31, 4-((2-(1H-pyrazol-4-yl)ethyl)amino)-N-benzyl-5,6-dimethylpyrimidine-2-carboxamide]"
0.193 µM,929 nM,"Cc1nc(C(=O)NCc2cccc(F)c2)nc(NCCc2cn[nH]c2)c1C [Compound 32, 4-((2-(1H-pyrazol-4-yl)ethyl)amino)-N-(3-fluorobenzyl)-5,6-dimethylpyrimidine-2-carboxamide]"
0.2615 µM,1380 nM,"Cc1nc(C(=O)NC(c2ccccc2)C(F)(F)F)nc(NCCc2cn[nH]c2)c1C (stereo not shown) [Compound 33, 4-((2-(1H-pyrazol-4-yl)ethyl)amino)-5,6-dimethyl-N-(2,2,2-trifluoro-1-phenylethyl)pyrimidine-2-carboxamide]"
2.839 µM,17700 nM,"Cc1nc(C(=O)N2CCC(O)(c3ccccc3)CC2)nc(NCCc2cn[nH]c2)c1C [Compound 34, (4-((2-(1H-pyrazol-4-yl)ethyl)amino)-5,6-dimethylpyrimidin-2-yl)(4-hydroxy-4-phenylpiperidin-1-yl)methanone]"
0.231 µM,617 nM,Cc1nc(C(=O)N[C@H](C)c2ccsc2)nc(NCCc2cn[nH]c2)c1C [Compound 35]
0.2015 µM,882 nM,"Cc1nc(C(=O)NC(C)c2cccc(Cl)n2)nc(NCCc2cn[nH]c2)c1C (stereo not shown) [Compound 36, 4-((2-(1H-pyrazol-4-yl)ethyl)amino)-N-(1-(6-chloropyridin-2-yl)ethyl)-5,6-dimethylpyrimidine-2-carboxamide]"
0.2055 µM,1190 nM,"Cc1cccnc1[C@@H](C)NC(=O)c1nc(C)c(C)c(NCCc2cn[nH]c2)n1 [Compound 37, (R)-4-((2-(1H-pyrazol-4-yl)ethyl)amino)-5,6-dimethyl-N-(1-(3-methylpyridin-2-yl)ethyl)pyrimidine-2-carboxamide]"
0.1635 µM,3830 nM,"Cc1nc(C(=O)N2CCC[C@@H]2c2ccccc2)nc(NCCc2cn[nH]c2)c1C [Compound 38, (R)-(4-((2-(1H-pyrazol-4-yl)ethyl)amino)-5,6-dimethylpyrimidin-2-yl)(2-phenylpyrrolidin-1-yl)methanone]"
0.21 µM,1510 nM,"Cc1nc(C(=O)N[C@H](C)c2cccc(F)c2)nc(NCCc2cn[nH]c2)c1C [Compound 39, (R)-4-((2-(1H-pyrazol-4-yl)ethyl)amino)-N-(1-(3-fluorophenyl)ethyl)-5,6-dimethylpyrimidine-2-carboxamide]"
0.214 µM,1270 nM,"Cc1nc(C(=O)NC(c2ccccc2)c2nccn2C)nc(NCCc2cn[nH]c2)c1C (stereo not shown) [Compound 40, 4-((2-(1H-pyrazol-4-yl)ethyl)amino)-5,6-dimethyl-N-((1-methyl-1H-imidazol-2-yl)(phenyl)methyl)pyrimidine-2-carboxamide]"
0.2615 µM,2870 nM,"Cc1nc(C(=O)NC(C)(C)Cc2cccc(F)c2)nc(NCCc2cn[nH]c2)c1C [Compound 41, 4-((2-(1H-pyrazol-4-yl)ethyl)amino)-N-(1-(3-fluorophenyl)-2-methylpropan-2-yl)-5,6-dimethylpyrimidine-2-carboxamide]"
0.265 µM,2920 nM,"Cc1nc(C(=O)N2C[C@H](c3ccccc3)[C@@H](O)C2)nc(NCCc2cn[nH]c2)c1C [Compound 42, (4-((2-(1H-pyraazol-4-yl)ethyl)amino)-5,6-dimethylpyrimidin-2-yl)((3R,4S)-3-hydroxy-4-phenylpyrrolidin-1-yl)methanone]"
0.273 µM,827 nM,"COc1cccc([C@@H](C)NC(=O)c2nc(C)c(C)c(NCCc3cn[nH]c3)n2)n1 [Compound 43, (R)-4-((2-(1H-pyrazol-4-yl)ethyl)amino)-N-(1-(6-methoxypyridin-2-yl)ethyl)-5,6-dimethylpyrimidine-2-carboxamide]"
0.275 µM,1840 nM,"Cc1nc(C(=O)N2CCN(C)CC2c2ccccc2)nc(NCCc2cn[nH]c2)c1C (stereo not shown) [Compound 44, (4-((2-(1H-pyrazol-4-yl)ethyl)amino)-5,6-dimethylpyrimidin-2-yl)(4-methyl-2-phenylpiperazin-1-yl)methanone]"
0.2845 µM,2350 nM,"Cc1nc(C(=O)NC(c2cccc(F)c2)c2ccccn2)nc(NCCc2cn[nH]c2)c1C (stereo not shown) [Compound 46, 4-((2-(1H-pyrazol-4-yl)ethyl)amino)-N-((3-fluorophenyl)(pyridin-2-yl)methyl)-5,6-dimethylpyrimidine-2-carboxamide]"
0.2915 µM,2000 nM,"Cc1nc(C(=O)N[C@H](C)c2ccccn2)nc(NCCc2cn[nH]c2)c1C [Compound 47, (R)-4-((2-(1H-pyrazol-4-yl)ethyl)amino)-5,6-dimethyl-N-(1-(pyridin-2-yl)ethyl)pyrimidine-2-carboxamide]"
